40 molecules from BindingDB's records for doi:10.1021/jm070276i (Abbott Laboratories, 2007) can be followed below.

The target in the test is Transient receptor potential cation channel subfamily V member 1 (Homo sapiens, UniProt Q8NER1). As to the kind of experiment: Ca2+ Influx Functional Assay for the Determination of in Vitro Activity. On the procedure: The functional antagonist activity of compounds at the TRPV1 receptor was determined with a Ca2+ influx assay by measuring the effect on capsaicin (0.05 uM) evoked increase in intracellular Ca2+ levels using cells stably expressing recombinant human TRPV1. All compounds were tested over an 11-point half-log concentration range. The fluorescent Ca2+ chelating dye fluo-4 was used as an indicator of the relative levels of Ca2+ in a 96-well format using a fluorescence imaging plate reader. Fluorescence readings were made at 1-5 s intervals over the 240 s course of the experimental run. The peak increase in relative fluorescence units was calculated and expressed as a percentage of the 0.05 uM capsaicin (control) response. Curve fits of the data were solved using a four-parameter logistic Hill equation in GraphPad Prism, and IC50 values were calculated.
Transient receptor potential cation channel subfamily V member 1, sequence (Q8NER1 whole entry): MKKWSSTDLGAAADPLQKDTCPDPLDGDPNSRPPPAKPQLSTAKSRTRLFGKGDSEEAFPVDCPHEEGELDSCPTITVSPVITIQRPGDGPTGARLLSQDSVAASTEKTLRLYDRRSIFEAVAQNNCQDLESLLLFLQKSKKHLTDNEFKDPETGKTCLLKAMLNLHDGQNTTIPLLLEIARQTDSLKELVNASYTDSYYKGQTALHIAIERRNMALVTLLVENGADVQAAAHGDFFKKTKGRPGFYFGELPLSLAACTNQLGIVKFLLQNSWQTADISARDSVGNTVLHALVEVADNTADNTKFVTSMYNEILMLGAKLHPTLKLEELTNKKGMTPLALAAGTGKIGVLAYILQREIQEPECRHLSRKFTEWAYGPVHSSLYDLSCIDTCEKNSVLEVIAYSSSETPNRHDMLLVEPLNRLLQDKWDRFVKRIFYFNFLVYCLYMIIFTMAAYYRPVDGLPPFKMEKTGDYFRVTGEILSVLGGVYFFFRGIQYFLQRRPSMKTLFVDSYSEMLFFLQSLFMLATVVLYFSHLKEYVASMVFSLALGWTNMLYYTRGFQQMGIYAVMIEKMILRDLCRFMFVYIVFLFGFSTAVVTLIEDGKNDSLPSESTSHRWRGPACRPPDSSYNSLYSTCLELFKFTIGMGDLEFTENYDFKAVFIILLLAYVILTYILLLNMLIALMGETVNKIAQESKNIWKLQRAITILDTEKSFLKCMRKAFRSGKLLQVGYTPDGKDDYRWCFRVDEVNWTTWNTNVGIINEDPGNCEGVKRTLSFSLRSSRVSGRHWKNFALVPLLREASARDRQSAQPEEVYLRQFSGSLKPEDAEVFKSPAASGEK

For orientation: EC50 means the concentration giving half of the maximal effect.

`Nc1cc2c(NC(=O)NCc3ccc(N4CCCCCC4)cc3)cccc2cn1` [1-(3-aminoisoquinolin-5-yl)-3-{[4-(azepan-1-yl)phenyl]methyl}urea] gave an EC50 (pH 7.4, 22 °C) of 9.8 nM.
As for `O=C(NCc1ccc(N2[C@@H]3CCC[C@H]2CC3)c(F)c1F)Nc1cccc2[nH]ncc12` [1-({4-[(1R,5S)-8-azabicyclo[3.2.1]octan-8-yl]-2,3-difluorophenyl}methyl)-3-1H-indazol-4-ylurea], the concentration giving a half-maximal response (EC50) was determined as 25.5 nM.
`O=C(NCc1ccc(N2CCCCCC2)cc1)Nc1cccc2cnccc12` [3-{[4-(azepan-1-yl)phenyl]methyl}-1-isoquinolin-5-ylurea] displayed a 50% effective concentration (EC50) (pH 7.4, 22 °C) of 3.3 nM.
As to `O=C(NCc1ccc(N2[C@@H]3CCC[C@H]2CC3)c(F)c1)Nc1cccc2[nH]ncc12` [1-({4-[(1R,5S)-8-azabicyclo[3.2.1]octan-8-yl]-3-fluorophenyl}methyl)-3-1H-indazol-4-ylurea], the midpoint of the response, the EC50, lay at 14.8 nM.
Still for that read-out and setting: next, `CC(C)(C)CCc1cc(N2[C@@H]3CCC[C@H]2CC3)ccc1CNC(=O)Nc1cccc2[nH]ncc12` [1-({4-[(1R,5S)-8-azabicyclo[3.2.1]octan-8-yl]-2-(3,3-dimethylbutyl)phenyl}methyl)-3-1H-indazol-4-ylurea]: 10.3 nM.
In the case of `CC(C)c1cc(N2[C@@H]3CCC[C@H]2CC3)ccc1CNC(=O)Nc1cccc2[nH]ncc12` [1-({4-[(1R,5S)-8-azabicyclo[3.2.1]octan-8-yl]-2-(propan-2-yl)phenyl}methyl)-3-1H-indazol-4-ylurea], the EC50 was found to be 35.3 nM.
Molecule `O=C(NCc1ccc(N2CCCCCC2)cc1Cl)Nc1cccc2[nH]ncc12` [1-{[4-(azepan-1-yl)-2-chlorophenyl]methyl}-3-1H-indazol-4-ylurea] came in with an EC50 (pH 7.4, 22 °C) of 190 nM. This lies in the sub-micromolar range.
Same read-out and setting: next, `O=C(NCc1cc(F)c(N2CCCCCC2)c(F)c1)Nc1cccc2[nH]ncc12` [1-{[4-(azepan-1-yl)-3,5-difluorophenyl]methyl}-3-1H-indazol-4-ylurea]: 39.3 nM; `O=C(NCc1ccc(N2CCCCCC2)cc1C(F)(F)F)Nc1cccc2[nH]ncc12` [1-{[4-(azepan-1-yl)-2-(trifluoromethyl)phenyl]methyl}-3-1H-indazol-4-ylurea]: 133 nM.
The same measure, in the same setting: next, `Cc1cc2c(NC(=O)NCc3ccc(N4Cc5ccccc5C4)c(F)c3)cccc2cn1` [3-{[4-(2,3-dihydro-1H-isoindol-2-yl)-3-fluorophenyl]methyl}-1-(3-methylisoquinolin-5-yl)urea]: 7360 nM; `O=C(NCc1ccc(N2[C@@H]3CCC[C@H]2CC3)cc1C(F)(F)F)Nc1cccc2[nH]ncc12` [1-({4-[(1R,5S)-8-azabicyclo[3.2.1]octan-8-yl]-2-(trifluoromethyl)phenyl}methyl)-3-1H-indazol-4-ylurea]: 54.5 nM; `O=C(NCc1cc(F)c(N2CCOCC2)c(F)c1)Nc1cccc2cnccc12` [3-{[3,5-difluoro-4-(morpholin-4-yl)phenyl]methyl}-1-isoquinolin-5-ylurea]: 9.3 nM.
The same measure, in the same setting: as for `O=C(NCc1ccc(N2CCCCCC2)cc1Cl)Nc1cccc2cnccc12` [3-{[4-(azepan-1-yl)-2-chlorophenyl]methyl}-1-isoquinolin-5-ylurea], the figure is 5.2 nM.
In turn, `O=C(NCc1ccc(N2[C@@H]3CCC[C@H]2CC3)c(C(F)(F)F)c1)Nc1cccc2[nH]ncc12` [1-({4-[(1R,5S)-8-azabicyclo[3.2.1]octan-8-yl]-3-(trifluoromethyl)phenyl}methyl)-3-1H-indazol-4-ylurea] displayed an EC50 of 26.9 nM. This lies in the double-digit nanomolar range.
In the case of `Cc1cc(CNC(=O)Nc2cccc3[nH]ncc23)ccc1N1[C@@H]2CCC[C@H]1CC2` [1-({4-[(1R,5S)-8-azabicyclo[3.2.1]octan-8-yl]-3-methylphenyl}methyl)-3-1H-indazol-4-ylurea], the half-maximal effective concentration (EC50) worked out at 19.8 nM.
For `O=C(NCc1ccc(N2CCCCCC2)c(F)c1)Nc1cccc2cnccc12` [3-{[4-(azepan-1-yl)-3-fluorophenyl]methyl}-1-isoquinolin-5-ylurea], where the note is “pH 7.4, 22 °C”, the concentration giving a half-maximal response (EC50) is 2.8 nM.
The same measure, in the same setting: next, `O=C(NCc1ccc(N2[C@@H]3CCC[C@H]2CC3)cc1)Nc1cccc2cnccc12` [3-({4-[(1R,5S)-8-azabicyclo[3.2.1]octan-8-yl]phenyl}methyl)-1-isoquinolin-5-ylurea]: 3.3 nM.
Take `O=C(NCc1ccc(N2[C@@H]3CCC[C@H]2CC3)c(Br)c1)Nc1cccc2[nH]ncc12` [1-({4-[(1R,5S)-8-azabicyclo[3.2.1]octan-8-yl]-3-bromophenyl}methyl)-3-1H-indazol-4-ylurea]: a half-maximal response (EC50) required 43.2 nM.
On to `O=C(NCc1ccc(N2CCOCC2)cc1)Nc1cccc2cnccc12` [1-isoquinolin-5-yl-3-{[4-(morpholin-4-yl)phenyl]methyl}urea], for which the EC50 (pH 7.4, 22 °C) was determined as 91 nM. That is a double-digit nanomolar value.
In turn, `O=C(NCc1ccc(N2CCCCC2)cc1)Nc1cccc2cnccc12` [1-isoquinolin-5-yl-3-{[4-(piperidin-1-yl)phenyl]methyl}urea] gave a 50% effective concentration (EC50) (pH 7.4, 22 °C) of 7.3 nM.
Same read-out and setting: as for `O=C(NCc1ccc(N2[C@@H]3CCC[C@H]2CC3)cc1Cl)Nc1cccc2[nH]ncc12` [1-({4-[(1R,5S)-8-azabicyclo[3.2.1]octan-8-yl]-2-chlorophenyl}methyl)-3-1H-indazol-4-ylurea], the figure is 58.8 nM.
`Cn1ncc2c(NC(=O)NCc3ccc(N4[C@@H]5CCC[C@H]4CC5)cc3Cc3ccccc3)cccc21` [1-({4-[(1R,5S)-8-azabicyclo[3.2.1]octan-8-yl]-2-benzylphenyl}methyl)-3-(1-methyl-1H-indazol-4-yl)urea] showed a concentration giving a half-maximal response (EC50) of 19 nM.
The same measure, in the same setting: as for `O=C(NCc1cc(F)c(N2[C@@H]3CC[C@H]2CC2(C3)OCCO2)cc1F)Nc1cccc2[nH]ncc12` [1-({4-[(1S,5R)-8-azaspiro[bicyclo[3.2.1]octane-3,2'-[1,3]dioxolane]]-2,5-difluorophenyl}methyl)-3-1H-indazol-4-ylurea], the figure is 82 nM.
`O=C(NCc1ccc(N2[C@@H]3CCC[C@H]2CC3)cc1)Nc1cccc2[nH]ncc12` [1-({4-[(1R,5S)-8-azabicyclo[3.2.1]octan-8-yl]phenyl}methyl)-3-1H-indazol-4-ylurea] had a concentration giving a half-maximal response (EC50) (pH 7.4, 22 °C) of 18 nM.
Still for that read-out and setting: next, `O=C(NCc1ccc(N2CCOCC2)cc1)Nc1cccc2cnc(Cl)cc12` [1-(3-chloroisoquinolin-5-yl)-3-{[4-(morpholin-4-yl)phenyl]methyl}urea]: 156 nM.
On the same count and under the same terms, as for `Cc1cc2c(NC(=O)NCc3ccc(N4CCCCCC4)cc3)cccc2cn1` [3-{[4-(azepan-1-yl)phenyl]methyl}-1-(3-methylisoquinolin-5-yl)urea], the figure is 3.8 nM.
With `Cn1c2ccccc2c2cc(CNC(=O)Nc3cccc4[nH]ncc34)ccc21` [3-1H-indazol-4-yl-1-[(9-methyl-9H-carbazol-3-yl)methyl]urea], the concentration giving a half-maximal response (EC50) was 902 nM.
`O=C(NCc1cc(F)c(N2[C@@H]3CCC[C@H]2CC3)c(F)c1)Nc1cccc2[nH]ncc12` [1-({4-[(1R,5S)-8-azabicyclo[3.2.1]octan-8-yl]-3,5-difluorophenyl}methyl)-3-1H-indazol-4-ylurea] registered an EC50 of 12.6 nM.
On to `CC1CN(c2ccc(CNC(=O)Nc3cccc4cnccc34)cc2)CC(C)O1` (stereo not given) [3-{[4-(2,6-dimethylmorpholin-4-yl)phenyl]methyl}-1-isoquinolin-5-ylurea], for which, for the setting “pH 7.4, 22 °C”, the response was half-maximal at 258 nM (EC50). This counts as sub-micromolar.
Take `Cc1cc(N2[C@@H]3CCC[C@H]2CC3)ccc1CNC(=O)Nc1cccc2[nH]ncc12` [1-({4-[(1R,5S)-8-azabicyclo[3.2.1]octan-8-yl]-2-methylphenyl}methyl)-3-1H-indazol-4-ylurea]: the midpoint of the response, the EC50, lay at 29 nM.
Turning to `CCN1CCc2cc(CNC(=O)Nc3cccc4[nH]ncc34)ccc21` [1-[(1-ethyl-2,3-dihydro-1H-indol-5-yl)methyl]-3-1H-indazol-4-ylurea], the EC50 turned out to be 285 nM.
The molecule `O=C(NCc1ccc(N2CCCCCC2)c(F)c1)Nc1cccc2[nH]ncc12` [1-{[4-(azepan-1-yl)-3-fluorophenyl]methyl}-3-1H-indazol-4-ylurea] displayed a 50% effective concentration (EC50) (pH 7.4, 22 °C) of 14.2 nM.
On the same count and under the same terms, next, `CC1CCN(c2ccc(CNC(=O)Nc3cccc4cnccc34)cc2)CC1` [1-isoquinolin-5-yl-3-{[4-(4-methylpiperidin-1-yl)phenyl]methyl}urea]: 9.3 nM.
`O=C(NCc1ccc(N2[C@@H]3CCC[C@H]2CC3)c(Cl)c1)Nc1cccc2[nH]ncc12` [1-({4-[(1R,5S)-8-azabicyclo[3.2.1]octan-8-yl]-3-chlorophenyl}methyl)-3-1H-indazol-4-ylurea]: the midpoint of the response, the EC50, lay at 20.4 nM.
As for `O=C(NCc1ccc(N2CCCCCC2)c(C(F)(F)F)c1)Nc1cccc2cnccc12` [3-{[4-(azepan-1-yl)-3-(trifluoromethyl)phenyl]methyl}-1-isoquinolin-5-ylurea], the EC50 (pH 7.4, 22 °C) was 4.6 nM.
In turn, `O=C1C[C@H]2CC[C@@H](C1)N2c1cc(F)c(CNC(=O)Nc2cccc3[nH]ncc23)cc1F` [1-({2,5-difluoro-4-[(1R,5S)-3-oxo-8-azabicyclo[3.2.1]octan-8-yl]phenyl}methyl)-3-1H-indazol-4-ylurea] came in with a 50% effective concentration (EC50) of 157 nM.
For the setting “pH 7.4, 22 °C”, `O=C(NCc1ccc(N2CCCCCCC2)cc1)Nc1cccc2cnccc12` [3-{[4-(azocan-1-yl)phenyl]methyl}-1-isoquinolin-5-ylurea] registered a 50% effective concentration (EC50) of 4.7 nM.
Still for that read-out and setting: as for `CN(C)c1ccc(CNC(=O)Nc2cccc3cnccc23)cc1` [3-{[4-(dimethylamino)phenyl]methyl}-1-isoquinolin-5-ylurea], the figure is 157 nM; as for `O=C(NCc1ccc(N2CCCCCC2)cc1C(F)(F)F)Nc1cccc2cnccc12` [3-{[4-(azepan-1-yl)-2-(trifluoromethyl)phenyl]methyl}-1-isoquinolin-5-ylurea], 5.7 nM.
For the setting “pH 7.4, 22 °C”, `O=C(NCc1ccc(C(F)(F)F)cc1)Nc1cccc2cnccc12` [1-isoquinolin-5-yl-3-{[4-(trifluoromethyl)phenyl]methyl}urea] registered an EC50 of 2.1 nM.
